IC50 data for 18 compounds are collected here from US20100105664A1, “ORGANIC COMPOUNDS” (priority 2006, published 2010).

Each structure is given as a SMILES string. Structures can show the parent of a compound that is named as a salt.

The target in the experiment is T1, human MK2 (Homo sapiens, UniProt P49137).
T1 construct: made in house
Description: MAPKAPK2 (or MK2) Kinase Assay. It counts as biochemical. The conditions noted are these: activated MAPKAPK2, Hsp27 peptide substrate, 5 μM ATP, TR-FRET. Here is the method:
MAPKAPK2 (or MK2) Kinase Assay
MAPAPK2 is pre-activated in kinase buffer (25 mM TRIS-HCL, pH 7.5, 25 mM beta-glycerophosphate, 0.1 mM sodium orthovanadate, 25 mM MgCl2, 20 μM DTT) containing 5 μM ATP, 150 μg/ml human MK2 (HPLC purified in house), 30 μg/ml active human p38α (HPLC purified in house) for 30 min at 22° C. For the measurement of compound inhibition on activated MAPAPK2, each reaction contained test compound (10 μl; 0.5% DMSO final) or vehicle control, 250 nM Hsp27 peptide biotinyl-AYSRALSRQLSSGVSEIR—COOH as substrate (10 μl) and pre-activated MAPKAP2 kinase mix (10 μl) containing ATP (5 μM final). To define non-specific, reactions are performed in the absence of substrate. Following incubation at 22° C. for 45 min, kinase reactions are terminated with 125 μM EDTA (10 μl). Samples (10 μl) are transferred to black low volume 384-well plates (Greiner) prior to the detection of phosphorylated substrate by time-resolved fluorescence resonance energy transfer (TR-FRET). Phosphorylated Hsp27 is measured using an antibody mix (10 μl) containing a rabbit anti-phospho-Hsp27 (Ser^82) antibody (2.5 nM, Upstate) in conjunction with an anti-rabbit europium-labeled secondary antibody LANCE Eu-W1024 (2.5 nM; Perkin Elmer) as fluorescence donor along with streptavidin SureLight-APC (6.25 nM; Perkin Elmer) as a fluorescence acceptor. Following incubation at 22° C. for 90 min, plates are measured at 615 and 665 nm using a PHERAstar (BMG Labtech). The 615/665 nm ratio is determined following subtraction of background. Values are expressed as % inhibition using control values. Individual IC50 values of compounds are determined by nonlinear regression after fitting of curves to the experimental data using Excel XL fit 4.0 (Microsoft).
For a number of compounds being identified by their example No. the efficacy is disclosed as being assessable by the above described MK2 kinase assay: […]

T1 sequence (P49137 whole entry): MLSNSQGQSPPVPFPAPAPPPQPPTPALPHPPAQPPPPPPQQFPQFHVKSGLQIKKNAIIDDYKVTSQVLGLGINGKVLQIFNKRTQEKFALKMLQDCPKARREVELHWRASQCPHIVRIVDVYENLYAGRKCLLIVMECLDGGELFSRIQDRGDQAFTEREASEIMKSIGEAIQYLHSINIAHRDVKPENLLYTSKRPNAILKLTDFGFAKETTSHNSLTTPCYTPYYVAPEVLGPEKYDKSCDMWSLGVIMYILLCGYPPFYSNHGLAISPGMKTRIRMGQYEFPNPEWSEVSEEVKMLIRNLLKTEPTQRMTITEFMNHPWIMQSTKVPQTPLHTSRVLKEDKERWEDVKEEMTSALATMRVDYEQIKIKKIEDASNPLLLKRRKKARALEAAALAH

For the compound `NC(=O)c1cc(-c2ccnc(/C=C/c3ccc(F)cc3)c2)[nH]c1N1CCNCC1` [Example 9, 5-{2-[(E)-2-(4-Fluoro-phenyl)-vinyl]-pyridin-4-yl}-2-piperazin-1-yl-1H-pyrrole-3-carboxylic acid amide], the IC50 is 130 nM.
For `NC(=O)c1cc(-c2ccnc(/C=C/c3ccccc3)c2)[nH]c1N1CCNCC1` [Example 14, 2-Piperazin-1-yl-5-[2-((E)-styryl)-pyridin-4-yl]-1H-pyrrole-3-carboxylic acid amide] the value was 120 nM; for `NC(=O)c1cc(-c2ccnc(-c3ccc(S(=O)(=O)N4CCOCC4)cc3)c2)[nH]c1N1CCNCC1` [Example 51, 5-{2-[4-(Morpholine-4-sulfonyl)-phenyl]-pyridin-4-yl}-2-piperazin-1-yl-1H-pyrrole-3-carboxylic acid amide], 50 nM.
For `NC(=O)c1cc(-c2ccnc(-c3ccc(C(=O)NC4CCCC4)cc3)c2)[nH]c1N1CCNCC1` [Example 55, 5-[2-(4-Cyclopentylcarbamoyl-phenyl)-pyridin-4-yl]-2-piperazin-1-yl-1H-pyrrole-3-carboxylic acid amide], the IC50 is 260 nM.
Turning to `NC(=O)c1cc(-c2ccnc(/C=C/c3ccc(CN4CCOCC4)cc3)c2)[nH]c1N1CCNCC1` [Example 72, 5-{2-[(E)-2-(4-Morpholin-4-ylmethyl-phenyl)-vinyl]-pyridin-4-yl}-2-piperazin-1-yl-1H-pyrrole-3-carboxylic acid amide hydrobromide], the IC50 was 100 nM.
As to `N#Cc1cc(-c2ccnc(/C=C/c3ccc(C(=O)N4CCOCC4)cc3)c2)[nH]c1N1CCNCC1` [Example 75, 5-(2-{(E)-2-[4-(Morpholine-4-carbonyl)-phenyl]-vinyl}-pyridin-4-yl)-2-piperazin-1-yl-1H-pyrrole-3-carbonitrile], the IC50 was determined as 150 nM.
Regarding `NC(=O)c1cc(-c2ccnc(/C=C/c3cccnc3)c2)[nH]c1N1CCNCC1` [Example 81, 2-Piperazin-1-yl-5-[2-((E)-2-pyridin-3-yl-vinyl)-pyridin-4-yl]-1H-pyrrole-3-carboxylic acid amide], the IC50 came out at 140 nM.
`NC(=O)c1cc(-c2ccnc(Nc3cccc(S(=O)(=O)N4CCOCC4)c3)c2)[nH]c1N1CCNCC1` [Example 93, 5-{2-[3-(Morpholine-4-sulfonyl)-phenylamino]-pyridin-4-yl}-2-piperazin-1-yl-1H-pyrrole-3-carboxylic acid amide] had an IC50 of 90 nM.
Under `CN1CCC(Oc2ccc(-c3cc(-c4cc(C#N)c(N5CCNCC5)[nH]4)ccn3)cn2)CC1` [Example 105, 5-[6′-(1-Methyl-piperidin-4-yloxy)-[2,3′]bipyridinyl-4-yl]-2-piperazin-1-yl-1H-pyrrole-3-carbonitrile trifluoroacetate] stands 70 nM.
As for `NC(=O)c1cc(-c2ccnc(-c3ccc(N4CCCCC4)nc3)c2)[nH]c1N1CCNCC1` [Example 109, 2-Piperazin-1-yl-5-(3,4,5,6-tetrahydro-2H-[1,2′;5′,2″]terpyridin-4″-yl)-1H-pyrrole-3-carboxylic acid amide], it took 160 nM to reach half-maximal inhibition (IC50).
Under `CN1CCN(c2ccc(-c3cc(-c4cc(C(N)=O)c(N5CCNCC5)[nH]4)ccn3)cn2)CC1` [Example 110, 5-[6′-(4-Methyl-piperazin-1-yl)-[2,3′]bipyridinyl-4-yl]-2-piperazin-1-yl-1H-pyrrole-3-carboxylic acid amide] stands 150 nM; under `NC(=O)c1cc(-c2ccnc(-c3ccc(N4CCN(Cc5ccccc5)CC4)nc3)c2)[nH]c1N1CCNCC1` [Example 116, 5-[6′-(4-Benzyl-piperazin-1-yl)-[2,3′]bipyridinyl-4-yl]-2-piperazin-1-yl-1H-pyrrole-3-carboxylic acid amide], 200 nM; under `N#Cc1cc(-c2ccnc(-c3cnc(N4CCCOCC4)nc3)c2)[nH]c1N1CCNCC1` [Example 118, 5-[2-(2-[1,4]Oxazepan-4-yl-pyrimidin-5-yl)-pyridin-4-yl]-2-piperazin-1-yl-1H-pyrrole-3-carbonitrile trifluoroacetate], 70 nM.
For the compound `Cc1[nH]c(-c2ccnc(/C=C/c3ccc(CN4CCOCC4)cc3)c2)cc1C#N` [Example 131, 2-Methyl-5-{2-[(E)-2-(4-morpholin-4-ylmethyl-phenyl)-vinyl]-pyridin-4-yl}-1H-pyrrole-3-carbonitrile], the IC50 stood at 290 nM.
Compound `N#Cc1cc(-c2ccnc(/C=C/c3ccccc3)c2)[nH]c1C1CCNCC1` [Example 144, 2-Piperidin-4-yl-5-[2-((E)-styryl)-pyridin-4-yl]-1H-pyrrole-3-carbonitrile] registered an IC50 of 210 nM.
Under `N#Cc1cc(-c2ccnc(/C=C/c3ccccc3)c2)[nH]c1CCN` [Example 148, 2-(2-Amino-ethyl)-5-[2-((E)-styryl)-pyridin-4-yl]-1H-pyrrole-3-carbonitrile] stands 150 nM.
`NCCc1[nH]c(-c2ccnc(/C=C/c3ccccc3)c2)cc1C(=O)O` [Example 155, 2-(2-Amino-ethyl)-5-[2-((E)-styryl)-pyridin-4-yl]-1H-pyrrole-3-carboxylic acid]: it took 80 nM to reach half-maximal inhibition (IC50).
Consider `NC(=O)c1cc(-c2ccnc(/C=C/c3ccccc3)c2)[nH]c1C1=CCNCC1` [Example 170, 5-[2-((E)-Styryl)-pyridin-4-yl]-2-(1,2,3,6-tetrahydro-pyridin-4-yl)-1H-pyrrole-3-carboxylic acid amide], for which 270 nM corresponded to half-maximal inhibition (IC50).
